Results from the supplement of paper PMC8882468.

Assays:
Experiment in all cases: CTG-3D luminescence at 96 h relative to day-0 seeding control (ratio to day 0); higher = more growth / less cytotoxicity; PDxO 3D drug screen, 96 h, CTG-3D normalised to day-0 seeding control.
HCI-001 = system: HCI-001 (organoid from a triple-negative breast cancer xenograft)
HCI-002 = system: HCI-002 (organoid from a triple-negative breast cancer xenograft)
HCI-003.E2 = system: HCI-003.E2 (organoid from an ER-positive breast cancer xenograft)
HCI-019 = system: HCI-019 (organoid from a triple-negative breast cancer xenograft)
HCI-024 = system: HCI-024 (organoid from a breast cancer xenograft)

CC(=O)O[C@H]1C(=O)[C@@]2(C)[C@H]([C@H](OC(=O)c3ccccc3)[C@]3(O)C[C@H](OC(=O)[C@H](O)[C@@H](NC(=O)c4ccccc4)c4ccccc4)C(C)=C1C3(C)C)[C@]1(OC(C)=O)CO[C@@H]1C[C@@H]2O [paclitaxel]
CTG-3D luminescence at 96 h
Settings	12.5 pM	0.00025 µM	0.005 µM	0.1 µM	1 µM	10 µM	100 µM	625 fM
HCI-001, days in culture: 240	1.49	1.15	0.619	0.709	0.952	0.995	1.03	1.1
HCI-001, days in culture: 260	2.45	1.13	1.23	1.27	1.14	1.08	0.703	1.55
HCI-001, days in culture: 269	1.48	1.52	0.95	0.728	0.749	0.987	0.92	1.27
HCI-001, days in culture: 327	1.26	0.725	1.04	0.686	1.06	0.714	0.685	1.53
HCI-001, days in culture: 346	1.29	1.24	1.16	0.568	0.791	0.655	0.947	1.18
HCI-001, days in culture: 364	1.37	1.15	1.31	0.657	0.699	0.681	0.715	1.49
HCI-002, days in culture: 62	2.36	2.52	1.34	0.186	0.146	0.236	0.316	2.73
HCI-002, days in culture: 82	3.27	3.2	0.859	0.217	0.193	0.224	0.174	2.8
HCI-002, days in culture: 91	3.82	3.68	1.54	0.26	0.19	0.258	0.36	4.44
HCI-002, days in culture: 191	2.76	2.96	1.17	0.23	0.192	0.252	0.474	2.61
HCI-002, days in culture: 209	2.24	2.21	1.2	0.194	0.195	0.158	0.174	2.26
HCI-002, days in culture: 227	5	5.22	3	0.418	0.279	0.365	0.464	5
HCI-019, days in culture: 110	1.88	1.91	0.816	0.627	0.47	0.827	0.987	2.39
HCI-019, days in culture: 131	2.01	2.78	0.75	0.609	0.644	1.48	1.29	3.26
HCI-019, days in culture: 152	1.25	1.28	0.778	0.964	0.598	1.01	1.18	1.52
HCI-024, days in culture: 105	1.8	1.38	1.01	1.4	1.57	1.68	1.11	1.85
HCI-024, days in culture: 122	2.07	2.67	1.5	1.34	1.62	2.3	1.13	2.79
HCI-024, days in culture: 163	1.62	1.72	1.29	1.68	1.65	2.37	1.26	1.56

HCI-003.E2
Settings	CTG-3D luminescence at 96 h
12.5 pM	0.723
0.00025 µM	0.764
0.005 µM	0.601
0.1 µM	0.625
1 µM	0.634
10 µM	0.787
100 µM	0.992
625 fM	0.813

C/C=C1\NC(=O)[C@H]2CSSCC/C=C/[C@H](CC(=O)N[C@H](C(C)C)C(=O)N2)OC(=O)[C@H](C(C)C)NC1=O [romidepsin]
CTG-3D luminescence at 96 h
Settings	12.5 pM	0.00025 µM	0.005 µM	0.1 µM	1 µM	10 µM	100 µM	625 fM
HCI-001, days in culture: 240	1.85	1.11	0.504	0.308	0.442	0.0301	-0.0763	1.57
HCI-001, days in culture: 260	2.41	0.948	1.41	0.615	0.865	0.141	-0.0313	1.64
HCI-001, days in culture: 269	1.82	1.72	0.783	0.423	0.38	0.00899	-0.0103	1.64
HCI-001, days in culture: 327	1.6	1.01	0.868	0.329	0.501	-0.124	-0.199	1.75
HCI-001, days in culture: 346	1.68	1.28	0.579	0.303	0.317	-0.107	-0.155	1.21
HCI-001, days in culture: 364	1.68	1.04	0.67	0.274	0.349	0.0111	-0.0729	1.63
HCI-002, days in culture: 62	3.13	2.76	0.0634	-0.0198	-0.0112	-0.0609	-0.0931	3.1
HCI-002, days in culture: 82	3.16	3.38	0.0989	0.0435	0.0464	-0.0117	-0.0289	2.85
HCI-002, days in culture: 91	2.94	2.73	0.0516	0.028	0.0172	0.000373	-0.0143	2.7
HCI-002, days in culture: 191	3.33	3.23	-0.0284	-0.0636	-0.0937	-0.0909	-0.148	3.22
HCI-002, days in culture: 209	2.88	2.68	0.0167	-0.00615	-0.0397	-0.0225	-0.0845	2.84
HCI-002, days in culture: 227	5.16	4.82	0.108	0.0548	0.0335	0.0109	-0.0188	5.69
HCI-019, days in culture: 110	1.6	1.12	0.598	0.376	0.0772	0.000883	-0.00824	2.26
HCI-019, days in culture: 131	2.29	2.76	1.06	0.975	0.441	0.00479	-0.00826	3.05
HCI-019, days in culture: 152	1.95	1.43	1.55	0.685	0.489	0.00416	-0.00783	1.53
HCI-024, days in culture: 105	1.55	1.48	0.453	0.311	0.111	0.00592	-0.00576	1.92
HCI-024, days in culture: 122	1.84	2.34	0.619	0.277	0.107	0.00509	-0.00823	1.91
HCI-024, days in culture: 163	1.76	1.96	0.576	0.334	0.124	0.00767	-0.00793	1.96

HCI-003.E2
Settings	CTG-3D luminescence at 96 h
12.5 pM	1.2
0.00025 µM	0.624
0.005 µM	0.21
0.1 µM	0.0473
1 µM	0.0243
10 µM	0.0035
100 µM	-0.00659
625 fM	0.719

CC(C)n1nc(-c2ccc3oc(N)nc3c2)c2c(N)ncnc21 [sapanisertib]
CTG-3D luminescence at 96 h
Settings	12.5 pM	0.00025 µM	0.005 µM	0.1 µM	1 µM	10 µM	100 µM	625 fM
HCI-001, days in culture: 240	1.65	0.951	0.588	0.395	0.551	0.311	0.187	1.12
HCI-001, days in culture: 260	2.4	1.29	1.61	0.622	0.652	0.468	0.21	1.6
HCI-001, days in culture: 269	1.45	1.79	1.19	0.45	0.559	0.643	0.22	1.56
HCI-001, days in culture: 327	1.36	0.761	1.33	0.802	0.759	0.319	0.111	1.75
HCI-001, days in culture: 346	1.38	1.32	1.09	0.528	0.577	0.315	0.15	1.13
HCI-001, days in culture: 364	1.44	1.12	1.21	0.397	0.464	0.318	0.14	1.46
HCI-002, days in culture: 62	2.83	2.68	2.7	0.903	0.579	0.418	0.0431	2.93
HCI-002, days in culture: 82	3.4	3.17	2.04	0.983	0.633	0.403	0.0264	2.93
HCI-002, days in culture: 91	4.16	3.41	2.81	1.44	0.846	0.697	0.0524	4.41
HCI-002, days in culture: 191	2.25	2.71	2.07	1.04	0.718	0.443	0.0974	2.61
HCI-002, days in culture: 209	2.41	2.26	2.27	0.676	0.446	0.209	0.0077	2.18
HCI-002, days in culture: 227	5.28	4.74	4.01	1.33	0.801	0.598	0.0372	5.6
HCI-019, days in culture: 110	1.88	1.46	1.02	0.781	0.409	0.493	0.0143	2.26
HCI-019, days in culture: 131	2.52	3.19	3.17	1.21	0.676	0.681	0.0207	3.58
HCI-019, days in culture: 152	4.18	3.66	2.71	0.969	0.811	0.616	0.0357	2.12
HCI-024, days in culture: 105	1.5	1.82	1.16	0.885	0.716	0.64	0.243	1.88
HCI-024, days in culture: 122	2.28	2.85	1.86	0.922	0.842	0.81	0.3	2.57
HCI-024, days in culture: 163	2.15	1.91	1.59	1.61	1.1	0.902	0.363	1.85

HCI-003.E2
Settings	CTG-3D luminescence at 96 h
12.5 pM	2.24
0.00025 µM	2.55
0.005 µM	1.59
0.1 µM	0.0566
1 µM	0.0162
10 µM	0.0035
100 µM	-0.00157
625 fM	2.03
